Patent publication US20250017964A1, “ENGINEERING OR INDUCING PDGF AND/OR PDGFR SIGNALING TO ENHANCE NK CELL THERAPY” (City of Hope, priority 2021, published 2025)

Experiments:
Assay type in all cases: cell-based, human
PDGF-D promoter = test: ChIP-qPCR, binding of p65 to the PDGF-D promoter; details: IL-15-stimulated NK cells (1 h); not in resting NK cells
Method: FIGS. 5A-5J. IL-15 induces PDGF-D expression in an autocrine manner. (A) mRNA levels of PDGFA, PDGFB, PDGFC, and PDGF-D in T cells, B cells, and NK cells were analyzed using the BioGPS online tool. (B) mRNA levels of PDGFA, PDGFB, PDGFC, and PDGF-D in T cells, B cells, and NK cells were examined by qPCR (n=10). (C) Primary NK cells were treated with IL-15 (10 ng/ml) for the indicated times. mRNA levels of PDGF-D were examined by qPCR (n=3). (D-E) Representative dot plots and percentages of PDGF-D levels in NK cells after IL-15 (50 ng/ml) treatment for 24 h. Resting NK cells were used as control (n=5). […] (I-J) Binding of p65 to the PDGF-D promoter in IL-15 treated (I) or resting NK cells (J) as determined by ChIP-qPCR (n=3). Data represent three independent experiments. Data shown are means±SD. NS, not significant, *P<0.05, **P<0.01, ***P<0.001, and ****P<0.0001.
Primary NK cells were treated with IL-15 for 1 h. The cells were cross-linked in 1% formaldehyde and quenched with glycine buffer. ChIP assays were carried out using a Pierce Magnetic ChIP Kit (Cat No.26157, Thermo Scientific) according to the manufacturer's instructions. Digested chromatin was incubated overnight with a p65 ChIP-grade antibody (#8242, Cell Signaling Technology) or IgG control antibody (#3900, Cell Signaling Technology). The enriched chromatin was analyzed by qPCR using the following primers: […]

NK cells [1] = test: NK cell effector functions and surface receptors, flow cytometry; details: IL-15-primed NK cells (10 ng/ml), PDGF ligand 50 ng/ml, 48 h
Method: FIGS. 3A-3K. […] (A-E) Primary NK cells were treated with IL-15 (10 ng/ml) in the presence of PDGF-B (50 ng/ml) or PDGF-D (50 ng/ml) for 48 h. Expression levels of IFN-γ, TNF-α, granzyme B, perforin, and CD107a were examined by flow cytometry (n=5). (F-K) Primary NK cells were treated with IL-15 (10 ng/ml) plus PDGF-D (50 ng/ml) in the presence of anti-NKp44 (10 βg/ml) or anti-PDGFRβ (10 μg/ml) for 48 h. Expression levels of IFN-γ, TNF-α, and CD107a were examined by flow cytometry (n=3). Data represent three independent experiments. Data shown are means±SD. NS, not significant. *P<0.05, **P<0.01, and ***P<0.001.
FIGS. 10A-10K. […] (A-E) Representative histograms and summary data of IFN-γ, TNF-α, granzyme B, perforin, and CD107a in PDGFRβ^+ and PDGFRβ^− NK cells. Cells were gated on CD56^+PDGFRβ^+ or CD56^+PDGFRβ^− cells. (F) PDGFRβ^+ and PDGFRβ^− NK cells were sorted by flow cytometry and co-cultured with ^51 Cr-labeled K562 cells in a 96-well V-bottom plate at ratios of 5:1, 2.5:1, or 1.25:1 for 4 h at 37° C. in a 5% CO2 incubator. The supernatant was harvested and analyzed using a microbeta scintillation counter (n=3). […]
Cells were stained with the indicated cell-surface markers and/or fixed/permeabilized using a Fixation/Permeabilization Kit (eBioscience). […] Data were analyzed using NovoExpress software (Agilent Technologies).

NK cells [2] = test: NK cell expansion in vitro, cell counts by trypan blue exclusion; details: 7 days

Substance	p65 enrichment at the PDGF-D promoter versus normal IgG control (PDGF-D promoter)	expression of IFN-γ, TNF-α, perforin, and CD107a (NK cells [1])	expression of granzyme B (NK cells [1])	expansion of primary NK cells transduced with PDGFRβ (NK cells [2]; IL-2 50 U/ml and PDGF-D 50 ng/ml)	NK cell expansion (NK cells [2]; primary NK cells, IL-15 10 ng/ml and PDGF-D 50 ng/ml)
IL-15: recombinant human IL-15 (200-15); recombinant murine IL-15 in the mouse NK cell test	significantly enriched				
PDGF-D: recombinant human PDGF-DD (1159-SB-025), R&D Systems		induced	not granzyme B	enhanced the expansion	promoted cell expansion
